According to PubChem BioAssay (NCI):
“And” between values parts separate entries of the source, which are not always exact repeats. Equal entries are not always repeated.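 Following 48 hours of exposure in 96-well plates, responses at five concentrations were used to interpolate endpoints linearly. GI50: concentration for 50% inhibition of growth. At the TGI there is no net growth.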

Legend:
Assay in all cases: NCI-60 cell line screen, 48 h
DMS 273 small cell lung = system: DMS 273 small cell lung
ACHN renal = system: ACHN renal
NCI-H23 lung = system: NCI-H23 lung
IGROV1 ovarian = system: IGROV1 ovarian
DMS 114 small cell lung = system: DMS 114 small cell lung
COLO 205 colon = system: COLO 205 colon
KM12 colon = system: KM12 colon
SK-MEL-2 melanoma = system: SK-MEL-2 melanoma
OVCAR-4 ovarian = system: OVCAR-4 ovarian
NCI-H226 lung = system: NCI-H226 lung

CNC(=O)OCc1nc(SSC(C)(C)C)n(C)c1COC(=O)NC
TGI (DMS 273 small cell lung): 17.3 µM | TGI (ACHN renal): 8.71 µM | TGI (NCI-H23 lung): 8.11 µM | TGI (IGROV1 ovarian): 22.9 µM | TGI (DMS 114 small cell lung): 4.15 µM | TGI (COLO 205 colon): 3.28 µM | TGI (KM12 colon): 38.8 µM | TGI (SK-MEL-2 melanoma): 19.5 µM | TGI (OVCAR-4 ovarian): 4.3 µM | TGI (NCI-H226 lung): 28.3 µM

COc1ccc(C=O)cc1O[Si](C)(C)C(C)(C)C
TGI (DMS 273 small cell lung): > 100 µM | TGI (ACHN renal): > 100 µM | TGI (NCI-H23 lung): > 100 µM | TGI (IGROV1 ovarian): > 100 µM | TGI (DMS 114 small cell lung): > 100 µM | TGI (COLO 205 colon): > 100 µM | TGI (KM12 colon): > 100 µM | TGI (SK-MEL-2 melanoma): > 100 µM | TGI (OVCAR-4 ovarian): > 100 µM

COc1ccc2nc3cc(Cl)ccc3c(Sc3ccc([N+](=O)[O-])cc3C)c2c1
TGI (DMS 273 small cell lung): > 100 µM | TGI (ACHN renal): > 100 µM | TGI (NCI-H23 lung): > 100 µM | TGI (IGROV1 ovarian): > 100 µM | TGI (DMS 114 small cell lung): > 100 µM | TGI (COLO 205 colon): 46.1 µM | TGI (KM12 colon): > 100 µM | TGI (SK-MEL-2 melanoma): > 100 µM | TGI (OVCAR-4 ovarian): > 100 µM | TGI (NCI-H226 lung): > 100 µM

O=C(Nc1ccc(C(F)(F)F)cc1[N+](=O)[O-])C(=O)C1NC(=S)NC1=O (centres undefined)
TGI (DMS 273 small cell lung): > 100 µM | TGI (ACHN renal): > 100 µM | TGI (NCI-H23 lung): > 100 µM | TGI (IGROV1 ovarian): > 100 µM | TGI (DMS 114 small cell lung): > 100 µM | TGI (COLO 205 colon): 26.6 µM | TGI (KM12 colon): > 100 µM | TGI (SK-MEL-2 melanoma): > 100 µM | TGI (OVCAR-4 ovarian): > 100 µM | TGI (NCI-H226 lung): 24.1 µM

Cc1ccc(C)c(NC(=O)CC2Sc3ccccc3NC2=O)c1 (centres undefined)
GI50 (DMS 273 small cell lung): 23.1 µM and 97 µM | TGI (DMS 273 small cell lung): > 100 µM | GI50 (ACHN renal): 38.3 µM | TGI (ACHN renal): > 86.5 µM | GI50 (NCI-H23 lung): 17.8 µM and 47.3 µM | TGI (NCI-H23 lung): 38.4 µM and > 96.2 µM | TGI (IGROV1 ovarian): 36.6 µM and > 76.3 µM | TGI (DMS 114 small cell lung): > 100 µM | TGI (COLO 205 colon): > 100 µM | GI50 (KM12 colon): 22.7 µM and > 100 µM | TGI (KM12 colon): > 100 µM | TGI (SK-MEL-2 melanoma): > 100 µM | GI50 (OVCAR-4 ovarian): 14.8 µM and 31.3 µM | TGI (OVCAR-4 ovarian): 24 µM and 57.7 µM | GI50 (NCI-H226 lung): 15.9 µM and 37.2 µM | TGI (NCI-H226 lung): 28.6 µM and 67.2 µM

C[C@]12CC=CC(=O)[C@@]1(C)CCC(=O)C2
TGI (DMS 273 small cell lung): > 100 µM | TGI (ACHN renal): > 100 µM | TGI (NCI-H23 lung): > 100 µM | TGI (IGROV1 ovarian): > 100 µM | TGI (DMS 114 small cell lung): > 100 µM | TGI (KM12 colon): > 100 µM | TGI (SK-MEL-2 melanoma): > 100 µM | TGI (OVCAR-4 ovarian): > 100 µM | TGI (NCI-H226 lung): > 100 µM

COc1cc(NCC(C#N)C#N)ccc1N=Nc1ccc(Cl)cc1
TGI (DMS 273 small cell lung): 41.4 µM | TGI (ACHN renal): > 100 µM | TGI (NCI-H23 lung): 65.4 µM | TGI (IGROV1 ovarian): 71.7 µM | TGI (DMS 114 small cell lung): 48.2 µM | TGI (COLO 205 colon): 31.7 µM | TGI (KM12 colon): 33.4 µM | TGI (SK-MEL-2 melanoma): 46.9 µM | TGI (OVCAR-4 ovarian): > 100 µM | TGI (NCI-H226 lung): > 100 µM
